From patent publication US6057286A, “Identification and use of selective inhibitors of glycogen synthase kinase 3” (Chiron Corporation, priority 1997, dated 2000)

Columns and labels:
[1] = tested on: HepG2 liver cells; assay: Insulin- and glucose-stimulated glycogen synthase activity in stable tissue culture cells; format: cell-based; details: addition of insulin and glucose, in the presence of the GSK3 inhibitor
From the text: Assays for glucose uptake and glycogen synthesis can be conducted as described for cell-based assays generally. To measure glucose uptake and glycogen synthesis, a variety of stable tissue culture cell lines that respond to insulin stimulation by increasing the synthesis of glycogen and increasing the rate of glucose uptake from the medium can be used. These include HepG2 liver cells, CHO-IR cells, and Hirc cells. Under appropriate conditions the addition of insulin and glucose to HepG2 cells stimulates glycogen synthase activity and this stimulation of potentiated in the presence of the GSK3 inhibitor iodotubercidin. The response of glucose uptake in these cells to insulin, glucose and inhibitor can be as much as six fold, and consequently this assay is useful to detect the ability of inhibitors to potentiate glycogen synthesis in cells.

[2] = tested on: Drosophila cells; assay: β-catenin stabilization assay of intracellular GSK3 activity (western blot); format: cell-based; details: addition to Drosophila cells; detected on a western blot
From the text: Other assays that test functional GSK3 also provide a further test of intracellular GSK3 activity. These assays rely on the ability to observe indirect consequences of GSK3 activity within cells. An example of such an assay involves β-catenin stabilization. Cellular GSK3 activity leads to the destabilization of cytosolic pools of β-catenin in certain types of cell. Consequently, inhibition of GSK3 results in β-catenin stabilization and accumulation, which be detected on a western blot. […] Similarly, LiCl in the cell culture medium causes an increase in intracellular β-catenin levels as described in Stambolic et al, Cur. Biol. 6(12): 1664-8 (1996).

## Nc1ncnc2c1c(I)cn2[C@@H]1O[C@H](CO)[C@@H](O)[C@H]1O [iodotubercidin]
[1]
  stimulation of glycogen synthase activity by insulin and glucose: potentiated
[2]
  β-catenin accumulation: leads to β-catenin accumulation
